Measured values published in the NIST ThermoML archive (doi:10.1021/je1003065).
± gives the expanded uncertainty stated by the source.

Assay: mn = molality of the nth substance listed, in mol/kg
Details: Liquid, Vibrating tube method

[Br-].[Li+] [lithium bromide] + CCO
Details | mass density [kg/m3]
353.15 K, 39784 kPa, m1 = 0.9499 | 834.79 ± 1.7
353.15 K, 39945 kPa, m1 = 2.833 | 939.73 ± 1.9
353.15 K, 39986 kPa, m1 = 0.2335 | 790.37 ± 1.6
353.15 K, 40152 kPa, m1 = 0.5972 | 813.43 ± 1.7
353.15 K, 49925 kPa, m1 = 0.9499 | 842.49 ± 1.7
353.15 K, 49993 kPa, m1 = 0.5972 | 821.26 ± 1.7
353.15 K, 59926 kPa, m1 = 0.9499 | 849.56 ± 1.8
353.15 K, 60014 kPa, m1 = 0.2335 | 805.45 ± 1.7
353.15 K, 60014 kPa, m1 = 2.833 | 952.95 ± 1.9
353.15 K, 60225 kPa, m1 = 0.5972 | 828.81 ± 1.7
353.15 K, 69845 kPa, m1 = 0.9499 | 856.11 ± 1.8
353.15 K, 69979 kPa, m1 = 0.5972 | 835.44 ± 1.8
353.15 K, 79924 kPa, m1 = 0.9499 | 862.38 ± 1.8
353.15 K, 79968 kPa, m1 = 2.833 | 964.64 ± 1.9
353.15 K, 80004 kPa, m1 = 0.2335 | 818.76 ± 1.8
353.15 K, 80139 kPa, m1 = 0.5972 | 841.77 ± 1.8
353.15 K, 90021 kPa, m1 = 0.9499 | 868.33 ± 1.8
353.15 K, 99895 kPa, m1 = 2.833 | 975.38 ± 2
353.15 K, 99925 kPa, m1 = 0.9499 | 873.94 ± 1.9
353.15 K, 99987 kPa, m1 = 0.2335 | 829.93 ± 1.8
353.16 K, 1827 kPa, m1 = 2.272 | 878.19 ± 1.8
353.16 K, 2037 kPa, m1 = 0.5972 | 777.89 ± 1.6
353.16 K, 5076 kPa, m1 = 2.272 | 881.19 ± 1.8
353.16 K, 30024 kPa, m1 = 2.833 | 932.51 ± 1.9
353.16 K, 50031 kPa, m1 = 0.2335 | 798.55 ± 1.7
353.16 K, 69784 kPa, m1 = 2.833 | 958.82 ± 1.9
353.16 K, 89993 kPa, m1 = 0.5972 | 847.35 ± 1.8
353.17 K, 10149 kPa, m1 = 0.5972 | 786.15 ± 1.6
353.17 K, 70025 kPa, m1 = 0.2335 | 812.93 ± 1.7
353.18 K, 100098 kPa, m1 = 0.5972 | 852.48 ± 1.8
353.2 K, 79893 kPa, m1 = 3.368 | 991.32 ± 2
353.2 K, 89986 kPa, m1 = 3.368 | 996.68 ± 2
353.2 K, 99526 kPa, m1 = 3.368 | 1001.5 ± 2
353.21 K, 1063 kPa, m1 = 3.368 | 935.92 ± 1.9
353.21 K, 4909 kPa, m1 = 3.368 | 939.35 ± 1.9
353.21 K, 10311 kPa, m1 = 3.368 | 944.02 ± 1.9
353.21 K, 30003 kPa, m1 = 3.368 | 959.64 ± 1.9
353.21 K, 40073 kPa, m1 = 3.368 | 966.87 ± 1.9
353.21 K, 49925 kPa, m1 = 3.368 | 973.5 ± 1.9
353.21 K, 59786 kPa, m1 = 3.368 | 979.72 ± 2
353.21 K, 69928 kPa, m1 = 3.368 | 985.74 ± 2
353.22 K, 19643 kPa, m1 = 3.368 | 951.68 ± 1.9
373.11 K, 79585 kPa, m1 = 2.272 | 924.75 ± 1.9
373.12 K, 2208 kPa, m1 = 3.368 | 920.02 ± 1.8
373.12 K, 5044 kPa, m1 = 3.368 | 922.8 ± 1.9
373.12 K, 19844 kPa, m1 = 3.368 | 936.43 ± 1.9
373.12 K, 59597 kPa, m1 = 2.272 | 911.69 ± 1.9
373.12 K, 69993 kPa, m1 = 2.272 | 918.69 ± 1.9
373.13 K, 10014 kPa, m1 = 3.368 | 927.55 ± 1.9
373.13 K, 20555 kPa, m1 = 0.5972 | 780.15 ± 1.6
373.13 K, 69957 kPa, m1 = 0.2335 | 799.09 ± 1.7
373.14 K, 2369 kPa, m1 = 1.462 | 814.46 ± 1.6
373.14 K, 2757 kPa, m1 = 0.5972 | 759.44 ± 1.5
373.14 K, 10024 kPa, m1 = 0.2335 | 743.18 ± 1.5
373.14 K, 10201 kPa, m1 = 0.5972 | 767.99 ± 1.6
373.14 K, 29963 kPa, m1 = 3.368 | 944.93 ± 1.9
373.14 K, 29993 kPa, m1 = 0.5972 | 788.87 ± 1.6
373.14 K, 39934 kPa, m1 = 3.368 | 952.72 ± 1.9
373.14 K, 49924 kPa, m1 = 3.368 | 960.01 ± 1.9
373.14 K, 60080 kPa, m1 = 3.368 | 966.95 ± 1.9
373.14 K, 69925 kPa, m1 = 3.368 | 973.28 ± 2
373.14 K, 79738 kPa, m1 = 0.5972 | 829.02 ± 1.8
373.14 K, 80004 kPa, m1 = 0.2335 | 806.27 ± 1.8
373.14 K, 80063 kPa, m1 = 3.368 | 979.45 ± 2
373.14 K, 89993 kPa, m1 = 3.368 | 985.2 ± 2
373.14 K, 89994 kPa, m1 = 2.272 | 930.92 ± 1.9
373.14 K, 99876 kPa, m1 = 3.368 | 990.71 ± 2
373.15 K, 1026 kPa, m1 = 0.9499 | 780.35 ± 1.6
373.15 K, 1235 kPa, m1 = 0.2335 | 732.64 ± 1.5
373.15 K, 1415 kPa, m1 = 2.833 | 892.25 ± 1.8
373.15 K, 5002 kPa, m1 = 2.833 | 895.82 ± 1.8
373.15 K, 5004 kPa, m1 = 0.2335 | 737.23 ± 1.5
373.15 K, 5019 kPa, m1 = 1.462 | 817.48 ± 1.6
373.15 K, 5412 kPa, m1 = 0.9499 | 785.62 ± 1.6
373.15 K, 10004 kPa, m1 = 2.833 | 900.66 ± 1.8
373.15 K, 10068 kPa, m1 = 0.9499 | 790.99 ± 1.6
373.15 K, 19935 kPa, m1 = 0.9499 | 801.67 ± 1.6
373.15 K, 19957 kPa, m1 = 2.833 | 909.82 ± 1.8
373.15 K, 19985 kPa, m1 = 0.2335 | 754.93 ± 1.5
373.15 K, 29956 kPa, m1 = 2.833 | 918.4 ± 1.8
373.15 K, 29974 kPa, m1 = 0.9499 | 811.66 ± 1.6
373.15 K, 39236 kPa, m1 = 0.9499 | 820.14 ± 1.7
373.15 K, 39984 kPa, m1 = 2.833 | 926.44 ± 1.9
373.15 K, 40001 kPa, m1 = 0.2335 | 774.75 ± 1.6
373.15 K, 49979 kPa, m1 = 2.272 | 904.77 ± 1.8
373.15 K, 50002 kPa, m1 = 2.833 | 933.93 ± 1.9
373.15 K, 50023 kPa, m1 = 0.9499 | 829.23 ± 1.7
373.15 K, 59924 kPa, m1 = 2.833 | 940.87 ± 1.9
373.15 K, 59926 kPa, m1 = 0.9499 | 836.92 ± 1.7
373.15 K, 59977 kPa, m1 = 1.462 | 867.61 ± 1.8
373.15 K, 59987 kPa, m1 = 0.2335 | 791.31 ± 1.7
373.15 K, 69784 kPa, m1 = 2.833 | 947.33 ± 1.9
373.15 K, 69895 kPa, m1 = 0.9499 | 844.11 ± 1.8
373.15 K, 69979 kPa, m1 = 1.462 | 874.66 ± 1.8
373.15 K, 69994 kPa, m1 = 0.5972 | 822.13 ± 1.7
373.15 K, 79936 kPa, m1 = 0.9499 | 850.88 ± 1.8
373.15 K, 80021 kPa, m1 = 2.833 | 953.61 ± 1.9
373.15 K, 89926 kPa, m1 = 2.833 | 959.33 ± 1.9
373.15 K, 89934 kPa, m1 = 0.5972 | 835.63 ± 1.8
373.15 K, 89945 kPa, m1 = 0.9499 | 857.23 ± 1.8
373.15 K, 89956 kPa, m1 = 0.2335 | 812.23 ± 1.8
373.15 K, 99845 kPa, m1 = 2.833 | 964.74 ± 2
373.15 K, 99866 kPa, m1 = 0.5972 | 840.98 ± 1.8
373.15 K, 99874 kPa, m1 = 0.2335 | 817.91 ± 1.8
373.15 K, 99968 kPa, m1 = 0.9499 | 863.3 ± 1.9
